Assay results taken from patent US3970648A, “2-[2-(5-Nitro-2-furyl)vinyl]-4-(anilino)quinazolines” (Diamond Shamrock Corporation, priority 1974, dated 1976).

Experiments:
[1] = Growth promotion in chicks, Example XI (Table V); assay type: in vivo, broiler cross chicks; conditions: for feed efficiency (in words) / growth rate (in words): 25 g/T; for Average 4 Week Performance: Feed Efficiency / Average 4 Week Performance: Gain / Improved Response Over Basal Ration: Feed Efficiency / Improved Response Over Basal Ration: Gain: 4 weeks
Description: (§1) This example compares growth promotion activity of the product of Example I with other growth promotants at a concentration of 25 g/T in the Basal Ration described in Example VII. The other growth promotants include the product described in Example I of U.S. Pat. No. 3,542,784 -- Burch and quinoxaline-1,4-dioxide. Day old broiler cross chicks were weight equalized into groups of eight chicks each, and four replicates of eight chicks each were fed the experimental rations over a 4 week period.
The growth promotion tests described in Example X were repeated with the exception that five replicates of eight chicks each were fed the formulations described in Table V for 4 weeks.

[2] = Growth promotion in chicks at low feed levels, Example VIII (Table II); assay type: in vivo, broiler cross chicks; conditions: for Average 4 Week Performance: Feed Efficiency / Average 4 Week Performance: Gain / Improved Response Over Basal Ration: Feed Efficiency / Improved Response Over Basal Ration: Gain: 10 g/T in basal ration, 4 weeks
Description: Day old broiler cross chicks were weight equalized into groups of eight chicks each and were placed in battery brooders. The 32 chick treatment groups (four replicates) were fed one of the five rations described below for a 4 week period. Weekly measurements of body weights and feed consumption were made by replicate, and these measurements used to calculate weight gain and feed efficiency.
The basal ration was the basal ration used in Example VII above. The remaining five rations were obtained by mixing the indicated quantities of bacitracin (4 g/T), chlortetracycline (10 g/T), product of Example I (10 g/T), and product of Example III of U.S. Pat. No. 3,542,784 -- Burch (10 g/T) as growth promotants with the basal ration.

[3] = Growth promotion and feed efficiency in chicks, Example VII (Table I); assay type: in vivo, broiler cross chicks; conditions: for Average 4 Week Performance: Feed Efficiency / Average 4 Week Performance: Gain / Improved Response Over Basal Ration + Bacitracin: Feed Efficiency / Improved Response Over Basal Ration + Bacitracin: Gain: 200 g/T in basal ration + bacitracin (4 g/T), 4 weeks; for significance of improved feed efficiencies (level of probability) / significance of improved weight gains (level of probability): 200 g/T, analysis of variance
Description: One hundred 20 day-old broiler cross chicks were weight equalized into 15 groups of eight chicks each and placed in battery brooders. The 40 chick treatment groups (five replicates) were fed the one of the three rations described below for a 4 week period. Weekly measurements of body weights and feed consumption were made by replicate, and these measurements used to calculate weight gain and feed efficiency.
The commercial type broiler starter basal ration which was used in this study was designated as the Basal Ration, and had the following composition:
The preceding basal ration was mixed with bacitracin at a level of 4 g/T as the only growth stimulant to simulate commercial practice. This mixture was designated as the Basal Ration + Bacitracin (4 g/T) and constituted the negative control in this study.
A second ration was prepared by fortifying the Basal Ration + bacitracin described above with the Product from Example I above at a level of 200 g/T, and was designated as Basal Ration + Bacitracin + Product of Example I (200 g/T). A third ration was prepared by fortifying the Basal Ration + bacitracin described above with chlortetracycline (CTC) at a level of 200 g/T, and was designated as Basal Ration + Bacitracin + Chlortetracycline (200 g/T). Chlortetracycline served as the positive control in this test because it had shown strong growth promotion in numerous previous tests at this therapeutic level.
The commercial value of the product of Example I is indicated by the fact that these significant responses were obtained in addition to the growth stimulation provided by the presence of bacitracin in the ration. It is important to note that the negative controls in this example and in Examples VIII and X which follow were characterized by rapid rates of growth. This high plane of growth and feed efficiency performance on the part of the negative controls makes the responses to the test compounds all the more meaningful.
The term "growth promotion" is used herein to describe the beneficial effect of a compound in eliciting a more rapid rate of weight gain when compared to the weight gain of control animals not fed the compound. "Feed efficiency" is a term regularly used in animal husbandry and is a measure of the pounds of feed required to produce a pound of gain in the weight of the animal. A lower mathmatical value for feed efficiency reflects improved performance. […] In this case, as in the case of the weight gain (fifth column), an improved performance is indicated by a higher positive number.

[4] = Growth promotion in chicks, Example XII repeat (Table VII); assay type: in vivo, broiler cross chicks; conditions: for Average 4 Week Performance: Feed Efficiency / Average 4 Week Performance: Gain / Improved Response Over Basal Ration: Feed Efficiency / Improved Response Over Basal Ration: Gain: 25 g/T in basal ration, 4 weeks
Description: as §1
The growth promotion tests described in Example X were repeated with the additional testing the products of Examples II and III.

[5] = Growth promotion in chicks, Example XII first set (Table VI); assay type: in vivo, broiler cross chicks; conditions: for Average 4 Week Performance: Feed Efficiency / Average 4 Week Performance: Gain / Improved Response Over Basal Ration: Feed Efficiency / Improved Response Over Basal Ration: Gain: 25 g/T in basal ration, 4 weeks; for growth rate / feed efficiency, production parameters (in words): 25 g/T, first set of tests
Description: as §1, with “period. […]” for “period.”

[6] = Growth rate and feed efficiency in swine, Example XIII (Table VIII); assay type: in vivo, weanling pigs; conditions: 25 g/T
Description: Thirty-six weanling pigs weighing approximately 30 pounds each in good physical condition and originating from a common source were used in these tests. The pigs were allocated into sex and weight equalized pens of six pigs each. A 1 week period was allowed for acclimatization before testing. Three replicates of six pigs were fed the basal ration described below, and three replicates were fed the same basal ration supplemented with 25 g/T of the product of Example I.
The basal ration was a 17% commercial corn-soya pelletized formulation which was free of antibiotic and drug components. Composition of the basal ration formulation was: […]
The rations were offered ad libitum from six bushel self-feeders with a continuous supply of fresh water. The same ration formulations were used throughout the 6 week feeding period. Individual pig weighing were made after 0, 2, 4 and 6 (termination) week periods. Feed consumption records were kept on a pen basis, with feed efficiency conversion being compiled at the end of the second, fourth and sixth (termination) week of feeding. Complete morbidity and mortality records were kept.

[7] = 25 g/T combined with bacitracin 25 g/T
[8] = 6 weeks, mean of three replicates

For CN(C)[C@@H]1C(O)=C(C(N)=O)C(=O)[C@@]2(O)C(O)=C3C(=O)c4c(O)ccc(Cl)c4[C@@](C)(O)[C@H]3C[C@@H]12 [Chlortetracycline, reference compound], the “feed efficiency (in words)” value [1] was “moderate improvements in feed efficiencies”, the “growth rate (in words)” value [1] was “slight improvements in growth rates” and the “Average 4 Week Performance: Feed Efficiency” value ([1]; 25 g/T in basal ration) was 1.717. For the same compound, the “Average 4 Week Performance: Gain” value ([1]; 25 g/T in basal ration) was 752.5 g, the “Improved Response Over Basal Ration: Feed Efficiency” value ([1]; 25 g/T in basal ration) was “+4.7%” and the “Improved Response Over Basal Ration: Gain” value ([1]; 25 g/T in basal ration) was “+2.7%”. The “Average 4 Week Performance: Feed Efficiency” value [2] was 1.745, the “Average 4 Week Performance: Gain” value [2] was 714.2 g and the “Improved Response Over Basal Ration: Feed Efficiency” value [2] was “+0.9%”. The “Improved Response Over Basal Ration: Gain” value [2] was -0.9%, the “Average 4 Week Performance: Feed Efficiency” value [3] was 1.607 and the “Average 4 Week Performance: Gain” value [3] was 732.4 gms. For the same compound, the “Improved Response Over Basal Ration + Bacitracin: Feed Efficiency” value [3] was “+6.6%”, the “Improved Response Over Basal Ration + Bacitracin: Gain” value [3] was “+5.5%” and the “significance of improved feed efficiencies (level of probability)” value [3] was 99.9%. The “significance of improved weight gains (level of probability)” value [3] was 99.5%.
With O=[N+]([O-])c1ccc(C=Cc2nc(Nc3ccc(O)cc3)c3ccccc3n2)o1 [Example I, 2-[2-(5-nitro-2-furyl)vinyl]-4-(p-hydroxyanilino)quinazoline] the “feed efficiency (in words)” value [1] was “substantial improvement in feed efficiency”, the “growth rate (in words)” value [1] was “moderate improvement in growth rate” and the “combination effect (in words)” value [1, 7] was “synergistic effects”. The “Average 4 Week Performance: Feed Efficiency” value [1, 7] was 1.666, the “Average 4 Week Performance: Gain” value [1, 7] was 766.4 g and the “Improved Response Over Basal Ration: Feed Efficiency” value [1, 7] was “+7.5%”. The “Improved Response Over Basal Ration: Gain” value [1, 7] was “+4.6%”, the “Average 4 Week Performance: Feed Efficiency” value ([1]; 25 g/T in basal ration) was 1.677 and the “Average 4 Week Performance: Gain” value ([1]; 25 g/T in basal ration) was 756.1 g. The “Improved Response Over Basal Ration: Feed Efficiency” value ([1]; 25 g/T in basal ration) was “+6.9%”, the “Improved Response Over Basal Ration: Gain” value ([1]; 25 g/T in basal ration) was “+3.2%” and the “Average 4 Week Performance: Feed Efficiency” value [4] was 1.706. For the same compound, the “Average 4 Week Performance: Gain” value [4] was 695.3 g, the “Improved Response Over Basal Ration: Feed Efficiency” value [4] was “+4.4%” and the “Improved Response Over Basal Ration: Gain” value [4] was “+1.9%”. For the same compound, the “growth rate / feed efficiency, production parameters (in words)” value (“growth rate / feed efficiency” below) ([4]; 25 g/T, second set of tests) was “moderate improvements in production parameters”, the “Average 4 Week Performance: Feed Efficiency” value [2] was 1.671 and the “Average 4 Week Performance: Gain” value [2] was 750.7 g. The “Improved Response Over Basal Ration: Feed Efficiency” value [2] was “+5.1%”, the “Improved Response Over Basal Ration: Gain” value [2] was “+4.2%” and the “growth promotion (in words)” value ([2]; 10 g/T, compared with other growth promotants of the test) was “greater growth promotion than any of the other growth promotants used in this test”. For the same compound, the “Average 4 Week Performance: Feed Efficiency” value [5] was 1.623, the “Average 4 Week Performance: Gain” value [5] was 762.1 g and the “Improved Response Over Basal Ration: Feed Efficiency” value [5] was “+0.7%”. The “Improved Response Over Basal Ration: Gain” value [5] was “+2.4%”, the “growth rate / feed efficiency” value [5] was “moderate improvements in production parameters” and the “Improved Response Over Basal Ration: Feed Efficiency” value ([6]; 6 weeks) was “+2.4%”. The “Improved Response Over Basal Ration: Gain” value ([6]; 6 weeks) was “+9.9%”, the “feed efficiency (in words)” value ([6]; 6 weeks) was “enhanced feed efficiency” and the “growth improvement (in words)” value ([6]; 6 weeks) was “very substantial growth improvement”. For the same compound, the “Avg. Daily Gain” value [6, 8] was 1.537, the “Feed/lb. Gain” value [6, 8] was 2.507 and the “Avg. Daily Gain” value ([6]; 6 weeks, replicate a) was 1.567. The “Feed/lb. Gain” value ([6]; 6 weeks, replicate a) was 2.722, the “Avg. Daily Gain” value ([6]; 6 weeks, replicate b) was 1.567 and the “Feed/lb. Gain” value ([6]; 6 weeks, replicate b) was 2.392. The “Avg. Daily Gain” value ([6]; 6 weeks, replicate c) was 1.476, the “Feed/lb. Gain” value ([6]; 6 weeks, replicate c) was 2.406 and the “Avg. 6 Wk. Wt. Per Pig” value ([6]; replicate a) was 97.8. The “Avg. 6 Wk. Wt. Per Pig” value ([6]; replicate b) was 97.6, the “Avg. 6 Wk. Wt. Per Pig” value ([6]; replicate c) was 93.7 and the “Average 4 Week Performance: Feed Efficiency” value [3] was 1.597. For the same compound, the “Average 4 Week Performance: Gain” value [3] was 739.8 gms, the “Improved Response Over Basal Ration + Bacitracin: Feed Efficiency” value [3] was “+7.2%” and the “Improved Response Over Basal Ration + Bacitracin: Gain” value [3] was “+6.5%”. The “significance of improved feed efficiencies (level of probability)” value [3] was 99.9% and the “significance of improved weight gains (level of probability)” value [3] was 99.5%.
For O=[N+]([O-])c1ccc(C=Cc2nc(Nc3cccc(O)c3)c3ccccc3n2)o1 [Example II, 2-[2-(5-nitro-2-furyl)vinyl]-4-(m-hydroxyanilino)quinazoline], the “Average 4 Week Performance: Feed Efficiency” value [4] was 1.672, the “Average 4 Week Performance: Gain” value [4] was 696.4 g and the “Improved Response Over Basal Ration: Feed Efficiency” value [4] was “+6.3%”. For the same compound, the “Improved Response Over Basal Ration: Gain” value [4] was “+2.0%”, the “Average 4 Week Performance: Feed Efficiency” value [5] was 1.580 and the “Average 4 Week Performance: Gain” value [5] was 773.0 g. For the same compound, the “Improved Response Over Basal Ration: Feed Efficiency” value [5] was “+3.3%”, the “Improved Response Over Basal Ration: Gain” value [5] was “+3.9%” and the “growth rate / feed efficiency” value [5] was “moderate improvements”.
